In publication PMC11247486, “Improving the In Vivo Stability of [^52Mn]Mn(II) Complexes with 18-Membered Macrocyclic Chelators for PET Imaging” (Journal of Medicinal Chemistry, 2024):

Assays:
[1] = Transmetalation (dissociation) kinetics of the Mn(II) complexes with Cu2+; format: physicochemical
Experimental: There is a wide consensus among the coordination chemistry community that kinetic inertness is more important for the safe use of metal complexes for imaging applications than thermodynamic stability.[8],[49],[50] Thus, we conducted a detailed investigation of the transmetalation kinetics of the Mn-PYAN and Mn-CHXPYAN complexes, by following their exchange reactions with Cu^2+ in the pH range of 2.5–4.5 (eq 3). [drawing 3] 3
All reactions were carried out in the presence of a large excess of Cu^2+ in order to guarantee the pseudo-first-order kinetic conditions. The transmetalation of Mn-PYAN in the pH range ∼2.0–4.5 is very fast, and thus the rates of the reactions were measured using the stopped-flow technique. Conversely, the exchange reactions of the Mn-CHXPYAN complex are slow and could be studied by using conventional methods. The transmetalation reactions of Mn-PYAN and Mn-CHXPYAN were monitored by following the formation of the corresponding Cu(II) complexes at 295 nm.
The kd values increase upon increase in [H^+] and are independent of the concentration of Cu^2+ as it was found for Mn-PCTA, Mn-PC3AM, and Mn-bispidine complexes.[49],[51] […] The increase in the kd values with increasing H^+ concentration can be interpreted in terms of the extremely slow spontaneous (k0, eq 4) and the proton-assisted (k*[Mn(HL), eq 6) dissociation of Mn(II) complexes. The saturation behavior of the plots of kd versus [H^+] (Figure 5) is characteristic for the equilibrium formation and the accumulation of the *[Mn(HL)] intermediate characterized by the *KH protonation constant (eq 5). The analysis of the rate constants obtained for Mn-CHXPYAN indicates a second-order dependence of kd on [H^+], which can be explained by the proton-assisted dissociation of the *[Mn(HL)] intermediate (k^H*[Mn(HL)], eq 7). [drawing 4] 4 [drawing 5] 5 [drawing 6] 6 [drawing 7] 7
In the presence of excess of the exchanging ion, the transmetalation can be treated as a pseudo-first-order process, and the rate of reactions can be expressed with eq 8, where kd is a pseudo-first-order rate constant and [MnL]t is the total concentration of the complex. [drawing 8] 8
Through consideration of all the possible pathways, the rate of the transmetalation of Mn-PYAN and Mn-CHXPYAN with Cu^2+ can be expressed by eq 9 [drawing 9] 9 Considering the total concentration of the Mn(II) complex ([MnL]t = [MnL] + [*Mn(HL)], as well as the equation defining the protonation constant for the formation of the *[Mn(HL)] intermediate (eq 5) and eq 8, the pseudo-first-order rate constant can be expressed as follows [drawing 10] 10 where k1 = k*[Mn(HL)] × *KH and k2 = k^H*[Mn(HL)] × *KH. The rate and protonation constants characterizing the transmetalation of Mn-PYAN and Mn-CHXPYAN with Cu^2+ have been calculated by fitting the kd values presented in Figure 5 to eq 10 and the values obtained are compared with the corresponding values of Mn-DOTA, Mn-DO3A, Mn-PCTA, Mn-PC3AM^H, and Mn-bispidine in Table 3.
Rates of the metal exchange reactions of Mn-PYAN and Mn-CHXPYAN with Cu^2+ were measured by spectrophotometry by following the formation of the related Cu(II) complexes at 295 nm with an Applied Photophysics DX-17MV stopped-flow instrument and PerkinElmer Lambda 365 UV–vis spectrophotometer using 1.0 cm cells, respectively. The concentration of Mn-PYAN and Mn-CHXPYAN was 1.0 × 10^–4 M, whereas the concentration of Cu^2+ was 10 and 20 times higher in order to guarantee pseudo-first-order conditions. The temperature was maintained at 25 °C and the ionic strength of the solutions was kept constant with 0.15 M NaCl. The exchange rates were studied in the pH range of ca. 2.0–4.5. To keep the pH values constant, monochloroacetic acid (pH range 2.0–3.3), 1,4-dimethylpiperazine (pH range 3.3–4.1), and N-methylpiperazine (pH range 4.1–4.5) buffers were used (0.01 M). […]

[2] = Cyclic voltammetry of the Mn(II) complexes; format: physicochemical; details: for peak-to-peak separation (ΔEp): 2 mM complex, pH ∼ 6.5
Experimental: Cyclic voltammetry experiments were performed with Mn-PYAN and Mn-CHXPYAN, using aqueous solutions with a complex concentration of 2 mM, containing 0.15 M NaCl as the supporting electrolyte (pH ∼ 6.5). The cyclic voltammograms obtained (Figure 3) show well-defined anodic and cathodic waves due to the Mn(II)/Mn(III) pair, which are characteristic of reversible or quasi-reversible processes. At the lowest scan rate (20 mV/s), the peak-to-peak separation (ΔEp) is slightly smaller for Mn-CHXPYAN than for Mn-PYAN, with values of 73 and 80 mV, respectively. When increasing the scan rate, ΔEp increases slightly, with values of 85 and 102 mV, respectively, at the highest scan rate (500 mV/s). This situation is characteristic of electrochemically quasi-reversible processes, although for Mn-CHXPYAN, the values of ΔEp are lower and present less variation with the scan rate.
This is likely related to ligand field effects due to the more symmetrical octahedral coordination around the metal ion in Mn-CHXPYAN than in Mn-PYAN, as evidenced by the shape measures mentioned above (Table S1, Supporting Information).[37] Indeed, high-spin Mn(III) complexes often display Jahn–Teller distorted octahedral coordination, while high-spin Mn(II) complexes lack any LFSE.[38],[39] The E1/2 values of 652 and 567 mV vs Ag/AgCl (3 M KCl) correspond to 862 and 777 mV vs NHE for Mn-PYAN and Mn-CHXPYAN, respectively.[40]
Cyclic voltammetry measurements were performed with a three-electrode configuration on an Autolab PGSTAT302 M potentiostat-galvanostat. A glassy-carbon disk (Metrohm 61204600) was used as the working electrode. The surface of this electrode was polished with α-Al2O3 (0.3 μm) and washed with distilled water before every measurement. The reference electrode used was a Ag/AgCl reference electrode filled with 3 M KCl (Metrohm 6.0726.100). A Pt wire was used as the counter electrode. The complex solutions (2 mM) containing […] were deoxygenated by bubbling nitrogen before each measurement.

[3] = scan rate 500 mV/s, 0.15 M NaCl
[4] = vs Ag/AgCl (3 M KCl), 0.15 M NaCl

Row | Compound | acid-catalyzed dissociation rate kd ([1]; pH = 5.5, 25 °C) | t1/2 ([1]; pH = 5.5, 25 °C) [h] | k1 lower than that determined for Mn-PYAN ([1]; ratio of k1 values) [times] | peak-to-peak separation (ΔEp) ([2]; scan rate 20 mV/s, 0.15 M NaCl) [mV] | peak-to-peak separation (ΔEp) [2, 3] [mV] | half wave potential (E1/2) [2, 4] [mV] | half wave potential (E1/2) ([2]; vs NHE) [mV] | t1/2 at pH = 7.4 ([1]; dissociation half-life of the Mn(II) complex, 0.15 M NaCl, 25 °C) [h]
1 | [Mn+2].c1cc2nc(c1)CN[C@@H]1CCCC[C@H]1NCc1cccc(n1)CN[C@@H]1CCCC[C@H]1NC2 [Mn-CHXPYAN] | 7.9 × 10^–7 s^–1 | 240 | 3600 | 73 | 85 | 567 | 777 | –
2 | [Mn+2].c1cc2nc(c1)CNCCNCc1cccc(n1)CNCCNC2 [Mn-PYAN] | – | – | – | 80 | 102 | 652 | 862 | 5.85
